Measured values reported in PMC13203959, “New inhibitors of the Pseudomonas aeruginosa enzyme, PqsE, and methods assessing their potential to induce a conformational change via active site binding” (mSphere, 2026).

Tests used:
PqsE(WT) [1] = biological target: T1, PqsE(WT) (Pseudomonas aeruginosa, UniProt P20581); test: Esterase assay: inhibition of PqsE-catalyzed MU-butyrate hydrolysis; assay type: biochemical
T1 construct: 6xHis (N); made in house; host or cells: E. coli BL21 (DE3)
Protocol: Purified PqsE, diluted in assay buffer (50 mM Tricine, 0.01% Triton X-100, pH 8.5), was added to the wells of an opaque 384-well plate at a final concentration of 125 nM. Test molecules were diluted in DMSO and added to the wells at the indicated concentrations (5% DMSO final). The plate was then incubated at room temperature for 5 min. MU-butyrate in assay buffer was added to the plate at a final concentration of 2 µM. The plate was incubated at room temperature for 20 min prior to measuring fluorescence (excitation: 360 nm and emission: 450 nm) to monitor the hydrolysis of MU-butyrate. All data were plotted in the Prism 9.0 program, and IC50 values were calculated from inhibition curves fit to the data.

PqsE(WT) [2] = biological target: T1, PqsE(WT); test: Differential scanning fluorimetry (DSF), PqsE(WT); assay type: binding; settings: PqsE(WT) 2 µM, compound 100 µM
Protocol: Compounds HJ1, HJ2, and HJ5 were tested for the ability to bind and shift the Tm of purified PqsE and PqsE variants using DSF as described previously with some modifications ([18]). Briefly, compounds in DMSO were diluted in assay buffer (50 mM Tris, 150 mM NaCl, 200 µM MnCl2, pH 8) to achieve a final concentration of 100 µM (1% DMSO). Compound solutions were transferred to the wells of a 96-well PCR plate (ThermoFisher), and control wells were prepared with 1% DMSO (negative control). SYPRO Orange Dye and PqsE solutions were diluted in assay buffer and subsequently added to the wells to reach final concentrations of 7× SYPRO Orange and 2 µM PqsE. Final volume in each well was 80 µL. Plates were sealed with transparent optical adhesive covers (ThermoFisher) prior to measurement of SYPRO Orange fluorescence (ex, 580 nm; em, 623 nm) in a QuantStudio 3 Real-Time PCR system (ThermoFisher) over an increasing temperature gradient from 25 to 90°C (temperature increased at a rate of 0.1°C/s). Tm was determined from first derivative plots of the raw fluorescence curves using the Prism 9.0 software.

PqsE(E280A) = biological target: T2, PqsE(E280A) (Pseudomonas aeruginosa, UniProt P20581, E280A); assay type: binding; settings: PqsE(E280A) 2 µM, compound 100 µM
T2 construct: made in house

PqsE(E182W) = biological target: T3, PqsE(E182W) (Pseudomonas aeruginosa, UniProt P20581, E182W); assay type: binding; settings: PqsE(E182W) 2 µM, compound 100 µM
T3 construct: made in house

PqsE(E182W/E280A) = biological target: T4, PqsE(E182W/E280A) (Pseudomonas aeruginosa, UniProt P20581, E182W/E280A); assay type: binding; settings: PqsE(E182W/E280A) 2 µM, compound 100 µM
T4 construct: made in house

PqsE(S285W) = biological target: T5, PqsE(S285W) (Pseudomonas aeruginosa, UniProt P20581, S285W); assay type: binding; settings: PqsE(S285W) 2 µM, compound 100 µM
T5 construct: 6xHis (N); made in house; host or cells: E. coli BL21 (DE3)

PqsE(S285A) = PqsE(S285A) (Pseudomonas aeruginosa, UniProt P20581, S285A); test: Differential scanning fluorimetry (DSF), PqsE(S285A); assay type: binding; settings: PqsE(S285A) 2 µM, compound 100 µM
PqsE(E182A) = biological target: T6, PqsE(E182A) (Pseudomonas aeruginosa, UniProt P20581, E182A); assay type: binding; settings: PqsE(E182A) 2 µM, compound 100 µM
T6 construct: made in house

PqsE(S285D) = biological target: T7, PqsE(S285D) (Pseudomonas aeruginosa, UniProt P20581, S285D); assay type: binding; settings: PqsE(S285D) 2 µM, compound 100 µM
T7 construct: made in house

PqsE(S285Y) = biological target: T8, PqsE(S285Y) (Pseudomonas aeruginosa, UniProt P20581, S285Y); assay type: binding; settings: PqsE(S285Y) 2 µM, compound 100 µM
T8 construct: made in house

Compound	inhibitory activity on enzymatic activity of PqsE (PqsE(WT) [1]; esterase assay, dilution series)	Tm of PqsE-HJ complex (PqsE(WT) [2]) [°C]	∆Tm, shift in melting temperature vs DMSO-treated control (PqsE(WT) [2]) [°C]	Tm of PqsE-HJ complex (PqsE(E280A)) [°C]	∆Tm, shift in melting temperature vs DMSO-treated control (PqsE(E280A)) [°C]	Tm of PqsE-HJ complex (PqsE(E182W)) [°C]	∆Tm, shift in melting temperature vs DMSO-treated control (PqsE(E182W)) [°C]	Tm of PqsE-HJ complex (PqsE(E182W/E280A)) [°C]	∆Tm, shift in melting temperature vs DMSO-treated control (PqsE(E182W/E280A)) [°C]	Tm of PqsE-HJ complex (PqsE(S285W)) [°C]	∆Tm, shift in melting temperature vs DMSO-treated control (PqsE(S285W)) [°C]	Tm of PqsE-HJ complex (PqsE(S285A)) [°C]	∆Tm, shift in melting temperature vs DMSO-treated control (PqsE(S285A)) [°C]	Tm of PqsE-HJ complex (PqsE(E182A)) [°C]	∆Tm, shift in melting temperature vs DMSO-treated control (PqsE(E182A)) [°C]	Tm of PqsE-HJ complex (PqsE(S285D)) [°C]	∆Tm, shift in melting temperature vs DMSO-treated control (PqsE(S285D)) [°C]	Tm of PqsE-HJ complex (PqsE(S285Y)) [°C]	∆Tm, shift in melting temperature vs DMSO-treated control (PqsE(S285Y)) [°C]	IC50 (PqsE(WT) [1]; 125 nM PqsE, 2 µM MU-butyrate, pH 8.5, read-out: IC50, inhibition of PqsE enzyme function (MU-butyrate hydrolysis)) [nM]
Cc1n[nH]c2c(C(=O)Nc3ccc(NC(=O)OC(C)(C)C)cc3)cccc12 [HJ2]	virtually no effect	67.7	0.74	67.1	0.61	73.9	0.48	70.0	0.20	66.8	0.07	67.9	0.61	69.2	-0.47	67.0	0.14	68.2	0.41	–
CC(C)(C)CNC(=O)Nc1ccc(NC(=O)c2cccc3cn[nH]c23)cc1 [BB584, reference compound]	–	–	–	–	–	–	–	–	–	–	–	–	–	–	–	–	–	–	–	108
